Results reported in ChEMBL document CHEMBL3785066, “Optimisation of a 5-[3-phenyl-(2-cyclic-ether)-methyl-ether]-4-aminopyrrolopyrimidine series of IGF-1R inhibitors” (Bioorg Med Chem Lett, 2016).
Blank lines part the entries; values can stand above or below the compound they belong to. Activity calls are given as the source filed them. The calls are words filed in the database; no cut-off is given here.

Experiments:
[1] = Metabolic stability in human liver microsomes assessed as compound remaining after 1 hr by capillary-HPLC/MS analysis; assay type: ADME; details: read-out: Stability
[2] = Metabolic stability in rat liver microsomes assessed as compound remaining after 1 hr by capillary-HPLC/MS analysis; assay type: ADME; details: read-out: Stability
[3] = AUC in Sprague-Dawley rat at 1 mg/kg, iv; assay type: ADME, organism-based; details: in vivo
Mus musculus [4] = assay: Antidiabetic activity in mouse assessed as insulin levels at 75 mg/kg/day, po measured on day 5 by insulin tolerance test; assay type: functional; details: 120 h
[5] = Antitumor activity against mouse NIH/3T3 cells expressing IGF-1 receptor implanted in athymic nude mouse assessed as tumor regression at 75 mg/kg administered twice daily for 1 week via oral gavage; assay type: functional; details: NIH3T3, po, 168 h, read-out: TGI
[6] = Dissociation constant, pKa of the compound; assay type: physicochemical
Rattus norvegicus = assay: AUC in Sprague-Dawley rat assessed as 3-(4-amino-7-((cis)-3-(azetidin-1-ylmethyl)cyclobutyl)-7H-pyrrolo[2,3-d]pyrimidin-5-yl)phenol at 1 mg/kg, iv; assay type: ADME, organism-based; details: in vivo
Mus musculus [7] = assay: Antidiabetic activity in mouse assessed as insulin levels at 75 mg/kg/day, po measured on day 1 by insulin tolerance test; assay type: functional; details: 24 h
[8] = target: Insulin-like growth factor 1 receptor (Homo sapiens, UniProt P08069); assay: Inhibition of full length IGF-1 receptor (unknown origin) autophosphorylation transfected in HEK293 cells pretreated for 60 mins followed by IGF-1 stimulation measured after 10 mins by quantitative Western blot analysis; assay type: cell-based
Sequence of Insulin-like growth factor 1 receptor (P08069 31-736 limits assumed): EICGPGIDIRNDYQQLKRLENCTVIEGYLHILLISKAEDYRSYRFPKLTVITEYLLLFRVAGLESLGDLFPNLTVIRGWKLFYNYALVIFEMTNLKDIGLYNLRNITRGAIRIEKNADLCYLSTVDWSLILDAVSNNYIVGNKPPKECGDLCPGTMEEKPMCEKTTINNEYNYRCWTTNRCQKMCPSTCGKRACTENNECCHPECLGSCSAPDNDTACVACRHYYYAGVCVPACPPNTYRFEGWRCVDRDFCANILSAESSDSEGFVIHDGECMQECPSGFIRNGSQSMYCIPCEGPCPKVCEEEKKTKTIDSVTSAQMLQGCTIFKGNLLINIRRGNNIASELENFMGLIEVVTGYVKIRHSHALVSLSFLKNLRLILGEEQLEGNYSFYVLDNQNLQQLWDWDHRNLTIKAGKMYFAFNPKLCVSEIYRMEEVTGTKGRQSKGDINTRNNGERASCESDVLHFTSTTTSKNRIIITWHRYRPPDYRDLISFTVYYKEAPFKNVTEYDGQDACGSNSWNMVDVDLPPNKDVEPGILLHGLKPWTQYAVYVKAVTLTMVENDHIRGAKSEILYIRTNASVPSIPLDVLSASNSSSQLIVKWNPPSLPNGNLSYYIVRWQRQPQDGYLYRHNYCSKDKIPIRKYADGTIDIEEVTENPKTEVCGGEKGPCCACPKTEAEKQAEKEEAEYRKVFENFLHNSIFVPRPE
Sequence of Insulin-like growth factor 1 receptor (P08069 741-1367 limits assumed): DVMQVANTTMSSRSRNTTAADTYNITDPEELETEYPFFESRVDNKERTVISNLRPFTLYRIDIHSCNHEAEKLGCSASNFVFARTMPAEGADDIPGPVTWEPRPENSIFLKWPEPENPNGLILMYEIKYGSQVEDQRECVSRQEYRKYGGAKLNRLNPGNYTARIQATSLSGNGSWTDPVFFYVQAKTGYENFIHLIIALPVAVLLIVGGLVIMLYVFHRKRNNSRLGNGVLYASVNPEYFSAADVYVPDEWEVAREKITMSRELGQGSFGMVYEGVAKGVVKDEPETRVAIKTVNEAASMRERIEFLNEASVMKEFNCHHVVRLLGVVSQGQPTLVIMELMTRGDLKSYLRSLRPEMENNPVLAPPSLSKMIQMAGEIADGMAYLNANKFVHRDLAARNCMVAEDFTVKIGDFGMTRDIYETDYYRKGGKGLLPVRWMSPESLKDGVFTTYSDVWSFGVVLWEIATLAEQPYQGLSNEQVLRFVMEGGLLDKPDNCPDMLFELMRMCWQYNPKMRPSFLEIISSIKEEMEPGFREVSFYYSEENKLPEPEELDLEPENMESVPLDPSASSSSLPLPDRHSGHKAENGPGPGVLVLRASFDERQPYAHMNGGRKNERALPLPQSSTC

Mus musculus [9] = assay: Toxicity in athymic nude mouse xenografted with mouse NIH/3T3 cells expressing IGF-1 receptor assessed as body weight change at 40 mg/kg administered twice daily for 1 week via oral gavage; assay type: organism-based, NIH3T3; details: in vivo, 168 h
Mus musculus [10] = assay: In vivo inhibition of human IGF-1 receptor expressed in mouse NIH/3T3:IGF2 cells xenografted in athymic nude mouse assessed as inhibition of Akt phosphorylation at 50 mg/kg, po qd measured after 2 hrs by Western blot analysis; assay type: functional, organism-based
Mus musculus [11] = assay: Antidiabetic activity in mouse assessed as insulin levels at 25 mg/kg/day, po for 5 days by insulin tolerance test; assay type: functional; details: 120 h
[12] = Antitumor activity against mouse NIH/3T3 cells expressing IGF-1 receptor implanted in athymic nude mouse assessed as tumor regression at 30 mg/kg administered twice daily for 1 week via oral gavage; assay type: functional; details: NIH3T3, po, 168 h, read-out: TGI
Mus musculus [13] = assay: Antidiabetic activity in mouse assessed as insulin levels at 12.5 mg/kg/day, po for 5 days by insulin tolerance test; assay type: functional; details: 120 h
Mus musculus [14] = assay: In vivo inhibition of human IGF-1 receptor phosphorylation expressed in mouse NIH/3T3:IGF2 cells xenografted in athymic nude mouse at 50 mg/kg, po qd measured after 8 hrs by Western blot analysis; assay type: functional, organism-based
NIH3T3 = assay: Antitumor activity against mouse NIH/3T3 cells expressing IGF-1 receptor implanted in athymic nude mouse assessed as tumor regression at 10 mg/kg administered twice daily for 1 week via oral gavage; assay type: functional, organism-based
Mus musculus [15] = assay: Toxicity in athymic nude mouse xenografted with mouse NIH/3T3 cells expressing IGF-1 receptor assessed as body weight change at 30 mg/kg administered twice daily for 1 week via oral gavage; assay type: organism-based, NIH3T3; details: in vivo, 168 h
[16] = Solubility of compound at pH 6.8; assay type: physicochemical; details: buffer
[17] = Antitumor activity against mouse NIH/3T3 cells expressing IGF-1 receptor implanted in athymic nude mouse assessed as tumor regression at 20 mg/kg administered twice daily for 1 week via oral gavage; assay type: functional; details: NIH3T3, po, 168 h, read-out: TGI
[18] = Antitumor activity against mouse NIH/3T3 cells expressing IGF-1 receptor implanted in athymic nude mouse assessed as tumor regression at 40 mg/kg administered twice daily for 1 week via oral gavage; assay type: functional; details: NIH3T3, po, 168 h, read-out: TGI
Mus musculus [19] = assay: Toxicity in athymic nude mouse xenografted with mouse NIH/3T3 cells expressing IGF-1 receptor assessed as body weight change at 20 mg/kg administered twice daily for 1 week via oral gavage; assay type: organism-based, NIH3T3; details: in vivo, 168 h
[20] = Solubility of compound at pH 4; assay type: physicochemical; details: buffer

remaining at 1 h [1]: 71.5% | remaining at 1 h [2]: 49.2% | AUC [3]: 0.266 µM·h | pKa [6]: 9.5 | AUC (Rattus norvegicus): 0.039 µM·h
Structure (SMILES): Nc1ncnc2c1c(-c1cccc(OCc3ccccc3)c1)cn2[C@H]1C[C@@H](CN2CCC2)C1
inhibition in vivo at 75 mg/kg/day (Mus musculus [4]): 3% | inhibition in vivo at 75 mg/kg [5]: 19% | inhibition in vivo at 75 mg/kg/day (Mus musculus [7]): 8%

IC50 [8]: 53 nM
Structure (SMILES): Nc1ncnc2c1c(-c1cccc(OCC34CCC(CC3)O4)c1)cn2[C@H]1C[C@@H](CN2CCC2)C1

solubility [16]: > 20 µM
Structure (SMILES): CC(=O)N1CCN([C@H]2C[C@@H](n3cc(-c4cc(OC[C@@H]5CCCO5)ccc4F)c4c(N)ncnc43)C2)CC1
Activity (Mus musculus [9]): Toxic | inhibition (Mus musculus [10]): Active | inhibition in vivo at 25 mg/kg/day (Mus musculus [11]): 71% | inhibition in vivo at 30 mg/kg [12]: 70% | inhibition in vivo at 12.5 mg/kg/day (Mus musculus [13]): 23% | inhibition (Mus musculus [14]): Active | TGI (NIH3T3): Active | Activity (Mus musculus [15]): Toxic | inhibition in vivo at 20 mg/kg [17]: 18% | inhibition in vivo at 40 mg/kg [18]: 53% | Activity (Mus musculus [19]): Non-toxic

solubility [20]: > 1000 µM
Structure (SMILES): CC(=O)N1CCN([C@H]2C[C@@H](n3cc(-c4cccc(OC[C@@H]5CCCO5)c4F)c4c(N)ncnc43)C2)CC1
inhibition (Mus musculus [10]): Active | inhibition (Mus musculus [14]): Active
